# Experiments:
# MER kinase = MER kinase (Homo sapiens (Human), UniProt Q12866); assay: Assay of small molecular compounds for inhibiting the activity of MER kinase (LANCE TR-FRET); format: biochemical
# How it was run: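 MER kinase preincubated 5 min at RT with compound (11 points, 0.042-2500 nM final), then ULight-poly GT and ATP added (4× stocks 200 nM and 20 μM) for 60 min at RT, 1% DMSO. Phosphorylation detected by LANCE TR-FRET; IC50 from % inhibition versus controls.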
# Ba/F3 LMNA-NTRK1 cells = assay: Assay for inhibiting the proliferation of Ba/F3 LMNA-NTRK1 cells (CCK-8); format: cell-based; conditions: Mus musculus, BaF3
# How it was run: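 Cells were seeded and cultured overnight, then treated with graded compound concentrations (final DMSO 0.25%) for 72 h. CCK-8 was added for 1–2 h at 37 °C and OD450 read. Survival was normalised to untreated and cell-free blank wells, and IC50 was fitted.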
# Sequence of MER kinase (Q12866 21-999): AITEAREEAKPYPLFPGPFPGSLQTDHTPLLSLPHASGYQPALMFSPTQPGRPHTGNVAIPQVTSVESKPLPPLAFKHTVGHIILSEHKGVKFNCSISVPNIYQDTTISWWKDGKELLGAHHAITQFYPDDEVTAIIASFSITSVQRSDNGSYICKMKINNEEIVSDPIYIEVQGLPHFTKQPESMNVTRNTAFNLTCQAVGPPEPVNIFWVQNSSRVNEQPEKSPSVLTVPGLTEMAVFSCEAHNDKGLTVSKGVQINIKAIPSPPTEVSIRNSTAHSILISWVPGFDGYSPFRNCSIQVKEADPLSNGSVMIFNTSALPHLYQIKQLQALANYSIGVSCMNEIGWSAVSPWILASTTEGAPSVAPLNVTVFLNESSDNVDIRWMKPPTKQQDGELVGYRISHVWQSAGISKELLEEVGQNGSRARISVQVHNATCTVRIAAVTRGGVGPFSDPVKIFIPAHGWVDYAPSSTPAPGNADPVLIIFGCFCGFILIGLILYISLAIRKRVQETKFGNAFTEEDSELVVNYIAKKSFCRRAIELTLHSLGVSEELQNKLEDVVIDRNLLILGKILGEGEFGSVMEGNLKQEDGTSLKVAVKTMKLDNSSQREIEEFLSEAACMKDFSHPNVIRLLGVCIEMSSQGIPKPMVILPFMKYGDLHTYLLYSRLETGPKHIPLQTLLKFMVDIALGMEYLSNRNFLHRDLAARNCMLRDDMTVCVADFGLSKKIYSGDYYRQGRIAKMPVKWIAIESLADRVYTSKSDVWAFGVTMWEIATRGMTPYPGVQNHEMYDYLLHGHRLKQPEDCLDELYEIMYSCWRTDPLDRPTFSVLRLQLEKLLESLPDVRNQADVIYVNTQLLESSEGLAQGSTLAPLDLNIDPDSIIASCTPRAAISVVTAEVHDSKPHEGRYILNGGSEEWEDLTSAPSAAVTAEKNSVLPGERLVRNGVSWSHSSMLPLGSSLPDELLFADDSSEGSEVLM
SMILES,IC50 (MER kinase),IC50 (Ba/F3 LMNA-NTRK1 cells)
"CC(C)n1cc(C(=O)Nc2ccc(Oc3ccnc4cc(OCCCN5CCC(C)(C)CC5)c5c(c34)OCCO5)c(F)c2)c(=O)n(-c2ccc(F)cc2)c1=O [Example 92, N-(3-fluoro-4-((5-(3-(4,4-dimethylpiperidin-1-yl)propoxy)-2,3-dihydro-[1,4]dioxino[2,3-f]quinolin-10-yl)oxy)phenyl)-3-(4-fluorophenyl)-1-isopropyl-2,4-dioxo-1,2,3,4-tetrahydropyrimidine-5-carboxamide]",≤ 50 nM,50 to 200 nM
"CC(C)n1cc(C(=O)Nc2ccc(Oc3ccnc4cc(OCCCN5CCS(=O)(=O)CC5)c5c(c34)OCCO5)c(F)c2)c(=O)n(-c2ccc(F)cc2)c1=O [Example 76, N-(3-fluoro-4-((5-(3-(1,1-dioxidothiomorpholino)propoxy)-2,3-dihydro-[1,4]dioxino[2,3-f]quinolin-10-yl)oxy)phenyl)-3-(4-fluorophenyl)-1-isopropyl-2,4-dioxo-1,2,3,4-tetrahydropyrimidine-5-carboxamide]",≤ 50 nM,< 50 nM
"CC(C)n1cc(C(=O)Nc2ccc(Oc3ccnc4cc(OCCCN5CCC(C)(N)CC5)c5c(c34)OCCO5)c(F)c2)c(=O)n(-c2ccc(F)cc2)c1=O [Example 93, N-(3-fluoro-4-((5-(3-(4-amino-4-methylpiperidin-1-yl)propoxy)-2,3-dihydro-[1,4]dioxino[2,3-f]quinolin-10-yl)oxy)phenyl)-3-(4-fluorophenyl)-1-isopropyl-2,4-dioxo-1,2,3,4-tetrahydropyrimidine-5-carboxamide]",≤ 50 nM,200 to 1000 nM
"CC(C)Oc1cc2nccc(Oc3ccc(NC(=O)c4cn(C)c(=O)n(-c5ccc(F)cc5)c4=O)cc3F)c2c2c1OCCO2 [Example 88, N-(3-fluoro-4-((5-isopropoxy-2,3-dihydro-[1,4]dioxino[2,3-f]quinolin-10-yl)oxy)phenyl)-3-(4-fluorophenyl)-1-methyl-2,4-dioxo-1,2,3,4-tetrahydropyrimidine-5-carboxamide]",≤ 50 nM,–

# Second part, the compound after the results:
IC50 (MER kinase),IC50 (Ba/F3 LMNA-NTRK1 cells),SMILES
≤ 50 nM,< 50 nM,"CC(C)n1cc(C(=O)Nc2ccc(Oc3ccnc4cc(OCCO)c5c(c34)OCCO5)c(F)c2)c(=O)n(-c2ccc(F)cc2)c1=O [Example 78, N-(3-fluoro-4-((5-(2-hydroxyethoxy)-2,3-dihydro-[1,4]dioxino[2,3-f]quinolin-10-yl)oxy)phenyl)-3-(4-fluorophenyl)-1-isopropyl-2,4-dioxo-1,2,3,4-tetrahydropyrimidine-5-carboxamide]"
≤ 50 nM,–,"CCOc1ccn(-c2ccc(F)cc2)c(=O)c1C(=O)Nc1ccc(Oc2ccnc3cc(OCC4CC4)c4c(c23)OCCO4)c(F)c1 [Example 59, N-(4-((5-(cyclopropylmethoxy)-2,3-dihydro-[1,4]dioxino[2,3-f]quinolin-10-yl)oxy)-3-fluorophenyl)-4-ethoxy-1-(4-fluorophenyl)-2-oxo-1,2-dihydropyridine-3-carboxamide]"
≤ 50 nM,< 50 nM,"COCCOc1cc2nccc(Oc3ccc(NC(=O)c4cn(C(C)C)c(=O)n(-c5ccc(F)cc5)c4=O)cc3F)c2c2c1OCCO2 [Example 43, N-(3-fluoro-4-((5-(2-methoxyethoxy)-2,3-dihydro-[1,4]dioxino[2,3-f]quinolin-10-yl)oxy)phenyl)-3-(4-fluorophenyl)-1-isopropyl-2,4-dioxo-1,2,3,4-tetrahydropyrimidine-5-carboxamide]"
≤ 50 nM,–,"CCOc1ccn(-c2ccc(F)cc2)c(=O)c1C(=O)Nc1ccc(Oc2ccnc3cc(OCC(C)C)c4c(c23)OCCO4)c(F)c1 [Example 58, N-(4-((5-(isobutyloxy)-2,3-dihydro-[1,4]dioxino[2,3-f]quinolin-10-yl)oxy)-3-fluorophenyl)-4-ethoxy-1-(4-fluorophenyl)-2-oxo-1,2-dihydropyridine-3-carboxamide]"

# From patent US12202835B2, “Substituted aromatic ring-linked dioxinoquinazolines and dioxinoquinolines as kinase inhibitors” (BEIJING SCITECH-MQ PHARMACEUTICALS LIMITED, priority 2018, dated 2025)
